Data reported in PubChem BioAssay AID1259407 (Chemical Carcinogenesis Research Information System (CCRIS), 2018).
Active and inactive are the calls of the source. The rule behind the calls is not given here.

Tested on: CCRIS mutagenicity, Ames/micronucleus/aberration tests
Assay: CCRIS mutagenicity studies
[1] = Test System: AMES SALMONELLA TYPHIMURIUM, Strain/Indicator: TA98, Metabolic Activation: NONE, Method: PREINCUBATION
[2] = Test System: AMES SALMONELLA TYPHIMURIUM, Strain/Indicator: TA100, Metabolic Activation: NONE, Method: PREINCUBATION

COc1nncc2ccncc12
mutagenic call [1]: inactive; negative | mutagenic call (Test System: AMES SALMONELLA TYPHIMURIUM, Strain/Indicator: TA98, Metabolic Activation: RAT, LIVER, S-9, PCB, Method: PREINCUBATION): inactive; negative | mutagenic call [2]: inactive; negative | mutagenic call (Test System: AMES SALMONELLA TYPHIMURIUM, Strain/Indicator: TA100, Metabolic Activation: RAT, LIVER, S-9, PCB, Method: PREINCUBATION): inactive; negative

CCN(CC)CCCC(C)Nc1c2ccc(Cl)cc2nc2ccc(OC)cc12 (stereo not given)
mutagenic call (Test System: AMES SALMONELLA TYPHIMURIUM, Strain/Indicator: TA97, Metabolic Activation: HAMSTER, LIVER, S-9, AROCLOR 1254 (10%), Method: PREINCUBATION): active; positive | mutagenic call (Test System: AMES SALMONELLA TYPHIMURIUM, Strain/Indicator: TA97, Metabolic Activation: NONE, Method: PREINCUBATION): active; positive | mutagenic call (Test System: AMES SALMONELLA TYPHIMURIUM, Strain/Indicator: TA97, Metabolic Activation: RAT, LIVER, S-9, AROCLOR 1254 (10%), Method: PREINCUBATION): active; positive | mutagenic call (Test System: AMES SALMONELLA TYPHIMURIUM, Strain/Indicator: TA98, Metabolic Activation: HAMSTER, LIVER, S-9, AROCLOR 1254 (10%), Method: PREINCUBATION): active; positive | mutagenic call [1]: active; positive | mutagenic call (Test System: AMES SALMONELLA TYPHIMURIUM, Strain/Indicator: TA98, Metabolic Activation: NONE, Method: STANDARD PLATE): inactive; negative | mutagenic call (Test System: AMES SALMONELLA TYPHIMURIUM, Strain/Indicator: TA98, Metabolic Activation: RAT LIVER S-9, AROCLOR 1254 (10%), Method: STANDARD PLATE): active; positive | mutagenic call (Test System: AMES SALMONELLA TYPHIMURIUM, Strain/Indicator: TA98, Metabolic Activation: RAT LIVER S-9, Method: STANDARD PLATE): active; positive | mutagenic call (Test System: AMES SALMONELLA TYPHIMURIUM, Strain/Indicator: TA98, Metabolic Activation: RAT, LIVER, S-9, AROCLOR 1254 (10%), Method: PREINCUBATION): active; positive | mutagenic call (Test System: AMES SALMONELLA TYPHIMURIUM, Strain/Indicator: TA100, Metabolic Activation: HAMSTER, LIVER, S-9, AROCLOR 1254 (10%), Method: PREINCUBATION): inactive; negative | mutagenic call [2]: inactive; negative | mutagenic call (Test System: AMES SALMONELLA TYPHIMURIUM, Strain/Indicator: TA100, Metabolic Activation: NONE, Method: STANDARD PLATE): inactive; negative | mutagenic call (Test System: AMES SALMONELLA TYPHIMURIUM, Strain/Indicator: TA100, Metabolic Activation: RAT LIVER S-9, AROCLOR 1254 (10%), Method: STANDARD PLATE): inactive; negative | mutagenic call (Test System: AMES SALMONELLA TYPHIMURIUM, Strain/Indicator: TA100, Metabolic Activation: RAT LIVER S-9, Method: STANDARD PLATE): inactive; negative | mutagenic call (Test System: AMES SALMONELLA TYPHIMURIUM, Strain/Indicator: TA100, Metabolic Activation: RAT, LIVER, S-9, AROCLOR 1254 (10%), Method: PREINCUBATION): inactive; negative | mutagenic call (Test System: AMES SALMONELLA TYPHIMURIUM, Strain/Indicator: TA1535, Metabolic Activation: HAMSTER, LIVER, S-9, AROCLOR 1254 (10%), Method: PREINCUBATION): inactive; negative | mutagenic call (Test System: AMES SALMONELLA TYPHIMURIUM, Strain/Indicator: TA1535, Metabolic Activation: NONE, Method: PREINCUBATION): inactive; negative | mutagenic call (Test System: AMES SALMONELLA TYPHIMURIUM, Strain/Indicator: TA1535, Metabolic Activation: NONE, Method: STANDARD PLATE): inactive; negative | mutagenic call (Test System: AMES SALMONELLA TYPHIMURIUM, Strain/Indicator: TA1535, Metabolic Activation: RAT LIVER S-9, AROCLOR 1254 (10%), Method: STANDARD PLATE): inactive; negative | mutagenic call (Test System: AMES SALMONELLA TYPHIMURIUM, Strain/Indicator: TA1535, Metabolic Activation: RAT, LIVER, S-9, AROCLOR 1254 (10%), Method: PREINCUBATION): inactive; negative | mutagenic call (Test System: AMES SALMONELLA TYPHIMURIUM, Strain/Indicator: TA1537, Metabolic Activation: NONE, Method: STANDARD PLATE): active; positive | mutagenic call (Test System: AMES SALMONELLA TYPHIMURIUM, Strain/Indicator: TA1537, Metabolic Activation: RAT LIVER S-9, AROCLOR 1254 (10%), Method: STANDARD PLATE): active; positive | mutagenic call (Test System: E. COLI, Strain/Indicator: WP2 UVRA, Metabolic Activation: NONE, Method: STANDARD PLATE): active; positive | mutagenic call (Test System: E. COLI, Strain/Indicator: WP2 UVRA, Metabolic Activation: RAT LIVER S-9, AROCLOR 1254 (10%), Method: STANDARD PLATE): inactive; negative | mutagenic call (Test System: MOUSE LYMPHOMA, Strain/Indicator: L5178Y(TK+/TK-), Metabolic Activation: NONE, Method: SUSPENSION/PLATE): active; positive | mutagenic call (Test System: MOUSE LYMPHOMA, Strain/Indicator: L5178Y(TK+/TK-), Metabolic Activation: RAT LIVER S-9, AROCLOR 1254 (25%), Method: SUSPENSION/PLATE): inactive; negative
